Assay results as given in patent publication US9738604B2, “Ethynylbenzene derivatives” (Duke University, priority 2010, dated 2017).
Values after ≈ are worked out from the molar mass of the structure shown. Read-outs that look alike come from different tables or passages of the source.

Legend:
Format in all cases: cell-based
[1] = system: E. coli W3110RL; experiment: microbe, parasite or virus in culture; settings: for MIC E. coli W3110RL: E. coli with lpxC of R. leguminosarum, 22 hours at 37° C., MTT; for MIC: Escherichia coli, W3110RL, 22 h, read-out: MIC E. coli W3110RL
[2] = system: P. aeruginosa (PAO1); experiment: MIC, P. aeruginosa; settings: for MIC: Pseudomonas aeruginosa, read-out: MIC P. aeruginosa (PAO1)
[3] = system: E. coli W3110PA; experiment: microbe, parasite or virus in culture; settings: for MIC E. coli W3110PA: E. coli with lpxC of P. aeruginosa, 22 hours at 37° C., MTT; for MIC: Escherichia coli, W3110PA, 22 h, read-out: MIC E. coli W3110PA
[4] = system: E. coli W3110; experiment: microbe, parasite or virus in culture; settings: for MIC: Escherichia coli, W3110, 22 h, read-out: MIC E. coli W3110
[5] = P. aeruginosa PAO1, 22 hours at 37° C., MTT

SMILES	MIC E. coli W3110RL [1]	MIC P. aeruginosa (PAO1) [2, 5]	MIC E. coli W3110PA [3]	MIC E. coli W3110 [4]	MIC [1]	MIC ([2]; PAO1, 22 h)	MIC [3]	MIC [4]	MIC [2, 5]	MIC E. coli W3110 ([4]; wild-type E. coli W3110, 22 hours at 37° C., MTT)
Nc1ccc(C#CC#Cc2ccc(C(=O)N[C@@H](CC(=O)O)C(=O)NO)cc2)cc1 [CPD-019, (3S)-3-({4′-[4′-(4′-aminophenyl)buta-1′,3′-diyn-1′-yl]phenyl}formamido)-3-(hydroxycarbamoyl)propane acid]	E (>100 μg/mL)	E (>100 μg/mL)	E (>100 μg/mL)	D (key: A: <1 μg/mL; B: 1-10 μg/mL; C: 11-50 μg/mL; D: 51-100 μg/mL; E: >100 μg/mL)						
NC[C@H](NC(=O)c1ccc(C#CC#Cc2ccc(N)cc2)cc1)C(=O)NO [CPD-021, (2S)-3-amino-2-({4′-[4′-(4′-aminophenyl)buta-1′,3′-diyn-1-yl]phenyl}formamido)-N-hydroxypropanamide]	E (>100 μg/mL)	B (1-10 μg/mL)	C (11-50 μg/mL)	B (key: A: <1 μg/mL; B: 1-10 μg/mL; C: 11-50 μg/mL; D: 51-100 μg/mL; E: >100 μg/mL)						
C[C@@H](O)[C@H](NC(=O)c1ccc(C#CC#Cc2ccc(N)cc2)cn1)C(=O)NO [CPD-041, (2S,3R)-2-({5-[4-(4-aminophenyl)buta-1,3-diyn-1-yl]pyridin-2-yl}formamido)-N,3-dihydroxybutanamide]					11 to 50 µg/mL (≈ 29.1 to 132 µM)	1 to 10 µg/mL (≈ 2.64 to 26.4 µM)	1 to 10 µg/mL (≈ 2.64 to 26.4 µM)	< 1 µg/mL		
Nc1ccccc1C#CC#Cc1ccc(C(=O)N[C@@H](Cc2c[nH]cn2)C(=O)NO)cc1 [CPD-016, (2S)-2-({4′-[4′-(2′-aminophenyl)buta-1′,3′-diyn-1′-yl]phenyl}formamido)-N-hydroxy-3′-(1′H-imidazol-4′-yl)propanamide]					> 100 µg/mL	> 100 µg/mL	51 to 100 µg/mL (≈ 123 to 242 µM)	1 to 10 µg/mL (≈ 2.42 to 24.2 µM)		
Nc1ccc(C#CC#Cc2ccc(C(=O)N3CCC[C@H]3C(=O)NO)cc2)cc1 [CPD-031, (2S)-1-({4′-[4′-(4′-aminophenyl)buta-1′,3′-diyn-1-yl]phenyl}carbonyl)-N-hydroxypyrrolidine-2-carboxamide]	E (>100 μg/mL)	E (>100 μg/mL)	E (>100 μg/mL)	C (key: A: <1 μg/mL; B: 1-10 μg/mL; C: 11-50 μg/mL; D: 51-100 μg/mL; E: >100 μg/mL)						
Nc1ccc(C#CC#Cc2ccc(C(=O)N[C@@H]3CCN(O)C3=O)cc2)cc1 [CPD-044, (R)-4-((4-aminophenyl)buta-1,3-diynyl)-N-(1-hydroxy-2-oxopyrrolidin-3-yl)benzamide]					51 to 100 µg/mL (≈ 142 to 278 µM)	51 to 100 µg/mL (≈ 142 to 278 µM)	51 to 100 µg/mL (≈ 142 to 278 µM)	< 1 µg/mL		
Nc1ccc(C#CC#Cc2ccc(C(=O)N[C@H](C(=O)NO)[C@H](O)c3ccc(O)cc3)cc2)cc1 [CPD-049, 4-((4-aminophenyl)buta-1,3-diynyl)-N-((1R,2S)-1-hydroxy-3-(hydroxyamino)-1-(4-hydroxyphenyl)-3-oxopropan-2-yl)benzamide]					51 to 100 µg/mL (≈ 112 to 220 µM)	11 to 50 µg/mL (≈ 24.2 to 110 µM)	51 to 100 µg/mL (≈ 112 to 220 µM)	1 to 10 µg/mL (≈ 2.2 to 22 µM)		
C[C@H](O)[C@H](NC(=O)c1ccc(C#CC#Cc2ccc(N)cc2)cc1)C(=O)NO [CPD-053, (2S,3S)-2-{4′-[(4″-aminophenyl)buta-1′,3′-diynyl]benzamido}-1,3-dihydroxybutanamide]					51 to 100 µg/mL (≈ 135 to 265 µM)	< 1 µg/mL	< 1 µg/mL	< 1 µg/mL		
Nc1ccc(C#CC#Cc2ccc(C(=O)N[C@@H](Cc3ccccc3)C(=O)NO)cc2)cc1 [CPD-025, (2S)-2-({4′-[4′-(4′-aminophenyl)buta-1′,3′-diyn-1′-yl]phenyl}formamido)-N-hydroxy-3-phenylpropanamide]	E (>100 μg/mL)	D (51-100 μg/mL)	E (>100 μg/mL)	B (key: A: <1 μg/mL; B: 1-10 μg/mL; C: 11-50 μg/mL; D: 51-100 μg/mL; E: >100 μg/mL)						
C[C@H](NC(=O)c1ccc(C#CC#Cc2ccc(N)cc2)cc1)C(=O)NO [CPD-020, (2S)-2-({4′-[4′-(4′-aminophenyl)buta-1′,3′-diyn-1′-yl]phenyl}formamido)-N-hydroxypropanamide]	B (1-10 μg/mL)	C (11-50 μg/mL)	B (1-10 μg/mL)	A (key: A: <1 μg/mL; B: 1-10 μg/mL; C: 11-50 μg/mL; D: 51-100 μg/mL; E: >100 μg/mL)						
C[C@](O)(c1ccc(CO)cc1)[C@H](NC(=O)c1ccc(C#CC#Cc2ccc(N)cc2)cc1)C(=O)NO [CPD-062, 4-((4-aminophenyl)buta-1,3-diynyl)-N-((2S,3S)-3-hydroxy-1-(hydroxyamino)-3-(4-(hydroxymethyl)phenyl)-1-oxobutan-2-yl)benzamide]					51 to 100 µg/mL (≈ 105 to 207 µM)	1 to 10 µg/mL (≈ 2.07 to 20.7 µM)	< 1 µg/mL	< 1 µg/mL		
C[C@@H](O)[C@H](NC(=O)c1ccc(C#CC#Cc2cnc(N)nc2)cc1)C(=O)NO [CPD-036, (2S,3R)-2-{4′-[[(2″-amino)pyrimidin-5″-yl]buta-1′,3′-diynyl]benzamido}-1,3-dihydroxybutanamide]	E (>100 μg/mL)	A (<1 μg/mL)	B (1-10 μg/mL)	B (key: A: <1 μg/mL; B: 1-10 μg/mL; C: 11-50 μg/mL; D: 51-100 μg/mL; E: >100 μg/mL)						
CC(N)C(C(=O)NO)c1c[nH]c2cc(C#CC#Cc3ccc(N)cc3)ccc12 (stereo not drawn) [CPD-042, 3-amino-2-{6′-[4′-(4′-aminophenyl)buta-1′,3′-diyn-1′-yl]-1′H-indol-3′-yl}-N-hydroxybutanamide]					51 to 100 µg/mL (≈ 137 to 269 µM)	51 to 100 µg/mL (≈ 137 to 269 µM)	51 to 100 µg/mL (≈ 137 to 269 µM)	1 to 10 µg/mL (≈ 2.69 to 26.9 µM)		
C[C@@](O)(c1ccc(O)cc1)C(NC(=O)c1ccc(C#CC#Cc2ccc(N)cc2)cc1)C(=O)NO (stereo partly drawn) [CPD-052, 4-((4-aminophenyl)buta-1,3-diynyl)-N-((3R)-3-hydroxy-1-(hydroxyamino)-3-(4-hydroxyphenyl)-1-oxobutan-2-yl)benzamide]					51 to 100 µg/mL (≈ 109 to 213 µM)	1 to 10 µg/mL (≈ 2.13 to 21.3 µM)	1 to 10 µg/mL (≈ 2.13 to 21.3 µM)	< 1 µg/mL		
C[C@@H](O)[C@H](NC(=O)c1ccc(C#CC#Cc2ccc(N)nc2)cc1)C(=O)NO [CPD-035, (2S,3R)-2-{4′-[[(2″-amino)pyridin-5″-yl]buta-1′,3′-diynyl]benzamido}-1,3-dihydroxybutanamide]	C (11-50 μg/mL)	A (<1 μg/mL)	B (1-10 μg/mL)	A (key: A: <1 μg/mL; B: 1-10 μg/mL; C: 11-50 μg/mL; D: 51-100 μg/mL; E: >100 μg/mL)						
C[C@@H](O)[C@H](NC(=O)c1ccc(C#Cc2ccc(CN3CCOCC3)cc2)cc1)C(=O)NO [drawing 320]					> 100 µg/mL		< 1 µg/mL	< 1 µg/mL	< 1 µg/mL	
CC(C)[C@@]1(NC(=O)c2ccc(C#CC#Cc3ccc(N)cc3)cc2)CCN(O)C1=O [CPD-048, (S)-4-((4-aminophenyl)buta-1,3-diynyl)-N-(1-hydroxy-3-isopropyl-2-oxopyrrolidin-3-yl)benzamide]					51 to 100 µg/mL (≈ 127 to 249 µM)	51 to 100 µg/mL (≈ 127 to 249 µM)	51 to 100 µg/mL (≈ 127 to 249 µM)	1 to 10 µg/mL (≈ 2.49 to 24.9 µM)		
Nc1ccc(C#CC#Cc2ccc(C(=O)N[C@@H](CCC(=O)O)C(=O)NO)cc2)cc1 [CPD-018, (4S)-4-({4′-[4′-(4′-aminophenyl)buta-1′,3′-diyn-1′-yl]phenyl}formamido)-4-(hydroxycarbamoyl)butanoic acid]	E (>100 μg/mL)	C (11-50 μg/mL)	D (51-100 μg/mL)							B (1-10 μg/mL)
